Read-outs that look alike come from different tables or passages of the source.
Assays:
XT-I [1] = target: T1, XT-I (Homo sapiens, UniProt Q86Y38); experiment: IC50 determination, UPLC/ESI-MS/MS XT-I assay; type: biochemical
T1 sequence (Q86Y38 260-959 limits assumed): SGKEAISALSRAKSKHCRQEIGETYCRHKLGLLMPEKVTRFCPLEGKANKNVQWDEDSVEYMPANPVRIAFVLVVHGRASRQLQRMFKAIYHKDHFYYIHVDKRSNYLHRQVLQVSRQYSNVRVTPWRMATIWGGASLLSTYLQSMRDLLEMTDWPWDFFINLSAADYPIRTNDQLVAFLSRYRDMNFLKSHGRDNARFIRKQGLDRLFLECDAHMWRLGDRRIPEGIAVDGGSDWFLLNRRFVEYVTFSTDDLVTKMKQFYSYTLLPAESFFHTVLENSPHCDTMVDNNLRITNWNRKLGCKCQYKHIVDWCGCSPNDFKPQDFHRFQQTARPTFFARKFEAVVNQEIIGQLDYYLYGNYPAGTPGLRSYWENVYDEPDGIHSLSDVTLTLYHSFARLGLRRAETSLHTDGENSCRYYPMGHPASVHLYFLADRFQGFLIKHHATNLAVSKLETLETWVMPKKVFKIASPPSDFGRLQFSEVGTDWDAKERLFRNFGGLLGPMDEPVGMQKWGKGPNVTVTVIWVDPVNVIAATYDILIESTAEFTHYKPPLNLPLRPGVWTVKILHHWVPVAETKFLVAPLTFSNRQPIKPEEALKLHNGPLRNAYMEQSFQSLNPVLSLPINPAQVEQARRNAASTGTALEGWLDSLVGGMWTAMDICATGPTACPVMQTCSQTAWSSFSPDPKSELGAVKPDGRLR
Description: The measurement of relative XT-I activity among different samples is based on the XT-catalyzed incorporation of xylose from UDP-D-xylose on a modified bikunin-derived peptide after a fixed reaction time. The assay was originally developed for the determination of XT activity in human- or cell-culture-derived samples [13] by ultra-performance liquid chromatography/electrospray ionization tandem mass spectrometry (UPLC/ESI-MS/MS). The UPLC/ESI-MS/MS XT assay was recently modified toward a XT-I selective activity determination in human serum and cell culture samples (unpublished data). The relative intensities of the xylosylated peptide species abundance obtained with the respective m/z ratio were directly proportional to the relative XT-I activity of the sample. The XT-I activity determined is expressed in arbitrary units and normalized to the total protein content per 1 mL sample volume in cell culture approaches. A calibrator probe with a fixed amount of recombinant XT-I enzyme was included in every UPLC-MS/MS XT-I assay for assay comparability across multiple runs. […]
Inhibitor candidates from the NP compound library were screened using the UPLC/ESI-MS/MS XT-I assay with recombinant XT-I protein solution from pgsA-6HisXT1-K4 cells. […] The XT-I activity of the protein-inhibitor mixtures were determined by UPLC/ESI-MS/MS as described above. […]

XT-I [2] = target: T1, XT-I; experiment: Enzyme and inhibition kinetics (mode of inhibition), UPLC/ESI-MS/MS XT-I assay; type: biochemical; settings: inhibitor at IC50 concentration; for Vmax: Figure 2, modified acceptor peptide varied, 15 μM UDP-D-xylose, Michaelis-Menten; for Vmax [AU]: Table S2, Michaelis-Menten plot, nonlinear regression
Description: The measurement of relative XT-I activity among different samples is based on the XT-catalyzed incorporation of xylose from UDP-D-xylose on a modified bikunin-derived peptide after a fixed reaction time. The assay was originally developed for the determination of XT activity in human- or cell-culture-derived samples [13] by ultra-performance liquid chromatography/electrospray ionization tandem mass spectrometry (UPLC/ESI-MS/MS). The UPLC/ESI-MS/MS XT assay was recently modified toward a XT-I selective activity determination in human serum and cell culture samples (unpublished data). The relative intensities of the xylosylated peptide species abundance obtained with the respective m/z ratio were directly proportional to the relative XT-I activity of the sample. The XT-I activity determined is expressed in arbitrary units and normalized to the total protein content per 1 mL sample volume in cell culture approaches. A calibrator probe with a fixed amount of recombinant XT-I enzyme was included in every UPLC-MS/MS XT-I assay for assay comparability across multiple runs. The assay reaction mixture (50 μL) contained 50% (v/v) of the respective XT-I enzyme solution and 50% (v/v) reaction buffer. The final XT-I assay contained 25 mM MES buffer (pH 6.5), 25 mM KF buffer, 5 mM MnCl2, 5 mM MgCl2, 7.0 μM modified acceptor peptide and 30 μM UDP-D-xylose. The sample preparation for UPLC/ESI-MS/MS was performed according to [13]. In brief, after sample incubation at 37 °C for 24 h, the reaction was stopped by heating at 99 °C for 10 min. After centrifugation (10,000× g, 10 min) the supernatant was diluted fivefold with UPLC water for analysis. All cell-based XT-I assays were carried out in three biological and three technical replicates per donor-derived primary cell culture, while the XT-I activity determination for screening or kinetic purposes was carried out at least in technical duplicates.
The mode of inhibition (MOI) study was performed by evaluating the inhibitors’ impact on the enzyme parameters’ Michaelis constant Km and the maximum activity Vmax. In order to determine the enzyme and inhibition kinetics, XT-I activity determination of the recombinant XT-I protein solution with and without inhibitor supplementation was carried out in the presence of different acceptor peptide concentrations ranging from 1 to 30 μM. […] The Km and Vmax were determined with the Michaelis–Menten equation and nonlinear regression analysis, while the slope and Y-intersection values were determined by a Lineweaver–Burk plot and simple linear regression using GraphPad Prism 8.0 (GraphPad Software, La Jolla, United States) software.

[3] = test system: normal human dermal fibroblasts (NHDFs); experiment: WST-1 cell proliferation assay; type: cell-based; settings: 48 h
Description: Normal human dermal fibroblasts (NHDFs) from a 37- and […] were obtained commercially from Cambrex (Walkerville, United States) and Coriell (New Jersey, United States). The NHDFs were cultured in phenol red-free Dulbecco’s modified Eagle’s medium (DMEM; Thermo Fisher Scientific, Waltham, Massachusetts, United States) supplemented with 10% (v/v) FCS, 4 mM L-glutamine and 100,000 U/L penicillin, 100 mg/L Streptomycin, 0.25 mg/L amphotericin B (PAN Biotech, Aidenbach, Germany) at 37 °C, 5% CO2. The medium was changed twice a week until the cells reached 80% confluency. The NHDFs were subcultured with an expansion ratio of 1:3 using 0.05% trypsin (PAN Biotech, Aidenbach, Germany) and used until the ninth passage.
The tetrazolium salt WST-1 (Roche, Basel, Swiss) was used for the spectrophotometric quantification of cell proliferation in response to various inhibitor concentrations. The cell proliferation assay was carried out according to the manufacturer’s instructions in a 96-well tissue culture plate with 1700 cells per cavity. Based on the inhibition studies, the cells were cultured in fully supplemented DMEM for 24 h then treated with celastrol or amphotericin B for an additional 48 h. The WST-1 reagent was added to the cell culture supernatant 4 h before the end of the treatment. The absorptions at 440 and 590 nm were measured at timepoints 0, 1, 2, 3 and 4 h after the addition of WST-1.

Compound	IC50 (XT-I [1]; 15 μM UDP-D-xylose, 10.5 μM acceptor peptide, 1 h preincubation at RT, read-out: IC50) [µM]	Vmax (XT-I [2])	Vmax [AU] (XT-I [2])	mode of inhibition (MOI) regarding the acceptor peptide (XT-I [2])	cell proliferation (WST-1) compared to control ([3]; 4.0 μM)	cell proliferation (WST-1) compared to control ([3]; 0.5 to 2.0 μM)	IC50 (XT-I [1]) [µM]	cell proliferation (WST-1) compared to control ([3]; 2.0 μM)	cell proliferation (WST-1) compared to control ([3]; 0.5 and 1.0 μM)
C[C@@H]1[C@H](O)[C@@H](C)/C=C/C=C/C=C/C=C/C=C/C=C/C=C/[C@H](O[C@@H]2O[C@H](C)[C@@H](O)[C@H](N)[C@@H]2O)C[C@@H]2O[C@](O)(C[C@@H](O)C[C@@H](O)[C@H](O)CC[C@@H](O)C[C@@H](O)CC(=O)O[C@H]1C)C[C@H](O)[C@H]2C(=O)O [Compound 17, Amphotericin B]	12.2 ± 1	10 ± 0.4 ·10^3 AU	10031 ± 388	uncompetitive	reduced the proliferation of NHDFs significantly	did not influence cellular proliferation	–	–	–
CC1=C(O)C(=O)C=C2C1=CC=C1[C@@]2(C)CC[C@@]2(C)[C@@H]3C[C@](C)(C(=O)O)CC[C@]3(C)CC[C@]12C [Compound 68, Celastrol]	–	12 ± 0.6 ·10^3 AU	11826 ± 551	competitive	significantly decreased cell proliferation	–	11 ± 1	significantly decreased cell proliferation	did not influence cellular proliferation

— publication PMC7589200, “Identification of Putative Non-Substrate-Based XT-I Inhibitors by Natural Product Library Screening” (Biomolecules, 2020)
